The values below are quoted from earlier work in US20130096060A1, “GLP-1 AGONIST FOR USE IN THE TREATMENT OF STENOSIS OR/AND OBSTRUCTION IN THE PANCREATIC DUCT SYSTEM” (priority 2011, published 2013).

For data set [1], the system named is acinar cells of the guinea pig pancreas. Particulars: by interaction with exendin receptors (Raufman, 1996).
Data set [2] relates to acinar cells of the pancreas. As to conditions: in contrast to exendin-4.

For “exendin-3: peptide of the exendin group, able to lower blood glucose concentrations”, the “cellular cAMP production” value in data set [1] is on record as “stimulate an increase”. Further, the amylase release entry in data set [2] is “produces an increase”.

In the case of “exendin-4: peptide of the exendin group, 39 AS, SEQ ID NO: 2, able to lower blood glucose concentrations”, the “cellular cAMP production” value in data set [1] is “stimulate an increase”.
